Measured values from US20170008888A1 (KYORIN PHARMACEUTICAL CO., LTD., priority 2014, published 2017).

System: DNFB-induced ear inflammation mouse model
Assay: DNFB-induced ear inflammation mouse model: cytokine concentrations in ear tissue
Type: in vivo, mouse (Balb/c)
Experimental: In vivo T-cell mediated immune response was examined in a mouse model of CHS using the hapten dinitrofluorobenzene (DNFB) as the induction agent. […] On Days 0 and 1 (sensitization), 20 μL of 0.5% v/v DNFB in acetone:olive oil (4:1) was applied to each hindpaw of 8 week old male mice (Balb/c, Charles River Laboratories; 10 mice per group unless otherwise noted). On Day 5 (elicitation) 10 μL of 0.2% v/v DNFB in acetone: olive oil (4:1) was applied to the dorsal surface of the right ear of each animal; 10 μL of acetone: olive oil (4:1) was applied to the dorsal surface of the left ear as control. Treatments were administered by group as indicated in the table below; on days when DNFB was used, the QD and the morning dose of BID as appropriate were administered 30 minutes-1 hr. prior to DNFB application. […] Approximately 24 hours after elicitation (Day 6), a 7 mm tissue punch from the central portion of both ears was collected and wet weights measured. The primary functional assessment was the difference in wet weights of the right (DNFB) vs. left (vehicle) ears compared to the vehicle treatment (Vehicle1-S) as an indicator of inflammation (Table 17). Ear tissue punches were flash frozen, stored at −70° C. and analyzed for cytokines (see below).
Cytokine concentrations after DNFB induction and treatment were analyzed in the weighed and flash frozen tissues of the right (DNFB) and left (control) 7 mm ear punches. The ear tissues were stored at −70° C. until prepared for analysis as follows. Left or right ear tissues from the same treatment group were pooled and crushed with mortar and pestle under liquid nitrogen. Tissue representing 7-8 ear punches by weight was homogenized in Buffer A (50 mM HEPES pH 7.4, 100 mM NaCl) containing 1 tablet EDTA-free Protease Inhibitor (Thermo Fisher Scientific, Rockford, Ill.) per 10 mL, 1× Phosphatase Inhibitor Cocktail II (AG Scientific, San Diego, Calif.), and 1 mM PMSF (Sigma, St. Louis, Mo.). Homogenization was performed in Lysing Matrix D tubes (MP Biomedicals, Solon, Ohio), using the FastPrep-24 instrument (MP Biomedicals) at a speed setting of 6 for 4 cycles of 30 seconds, with cooling on ice in between cycles. The tubes were then centrifuged at 1,000×g for 10 min at 4° C. Supernatant was collected and briefly sonicated using the Microson probe sonicator at setting 3 (Misonix, Farmingdale, N.Y.) before centrifuging again at 10,000×g for 10 min at 4° C. The supernatant was ultracentrifuged at 100,000×g for 1 h at 4° C. in the Optima Max-E (Beckman Coulter, Indianapolis, Ind.) to separate soluble and membrane protein fractions. The soluble (supernatant) fraction was collected and protein concentrations determined using the Dc protein kit (Bio-Rad, Hercules, Calif.). Soluble ear proteins were analyzed in triplicate for cytokine response at a final protein concentration of 4 mg/ml using the Bio-Plex Pro Mouse Cytokine 23-Plex panel (Bio-Rad) as per manufacturer's protocols. Magnetic beads were read on the Bio-Plex MAGPIX multiplex reader instrument using the accompanying xPONENT 4.2 acquisition software (Bio-Rad Laboratories, Hercules, Calif.). Data were analyzed via the Bio-Plex Manager software v6.1 (Bio-Rad Laboratories). Response was calculated as a percentage of the cytokine concentrations measured in the right (DNFB) ears of vehicle 1 dosed (S regimen, i.e. dosed Day 0-5) mice (Table 18).

With CCOc1cc(C(=O)N2CCCN(C)CC2)ccc1Nc1cc2c(cn1)N(C)C(=O)c1ccccc1N2C [Compound 8] the “G-CSF: Mean % Cytokine Concentration in DNFB Treated Right Ears versus Vehicle 1-Dosed (S) Mice” value (“G-CSF: Mean % Cytokine Concentration” for short) (25 mg/kg, regimen E) was 68%, the “GM-CSF: Mean % Cytokine Concentration in DNFB Treated Right Ears versus Vehicle 1-Dosed (S) Mice” value (shortened to “GM-CSF: Mean % Cytokine Concentration”) (25 mg/kg, regimen E) was 40% and the “IFN-γ: Mean % Cytokine Concentration in DNFB Treated Right Ears versus Vehicle 1-Dosed (S) Mice” value (“IFN-γ: Mean % Cytokine Concentration” for short) (25 mg/kg, regimen E) was 52%. The “IL-1α: Mean % Cytokine Concentration in DNFB Treated Right Ears versus Vehicle 1-Dosed (S) Mice” value (shortened to “IL-1α: Mean % Cytokine Concentration”) (25 mg/kg, regimen E) was 88%, the “IL-1β: Mean % Cytokine Concentration in DNFB Treated Right Ears versus Vehicle 1-Dosed (S) Mice” value (“IL-1β: Mean % Cytokine Concentration” below) (25 mg/kg, regimen E) was 56% and the “IL-3: Mean % Cytokine Concentration in DNFB Treated Right Ears versus Vehicle 1-Dosed (S) Mice” value (from here on “IL-3: Mean % Cytokine Concentration”) (25 mg/kg, regimen E) was 67%. For the same molecule, the “IL-5: Mean % Cytokine Concentration in DNFB Treated Right Ears versus Vehicle 1-Dosed (S) Mice” value (from here on “IL-5: Mean % Cytokine Concentration”) (25 mg/kg, regimen E) was 37%, the “IL-6: Mean % Cytokine Concentration in DNFB Treated Right Ears versus Vehicle 1-Dosed (S) Mice” value (from here on “IL-6: Mean % Cytokine Concentration”) (25 mg/kg, regimen E) was 58% and the “IL-12 (p40): Mean % Cytokine Concentration in DNFB Treated Right Ears versus Vehicle 1-Dosed (S) Mice” value (25 mg/kg, regimen E) was 79%. For the same molecule, the “IL-13: Mean % Cytokine Concentration in DNFB Treated Right Ears versus Vehicle 1-Dosed (S) Mice” value (from here on “IL-13: Mean % Cytokine Concentration”) (25 mg/kg, regimen E) was 74%, the “IL-17A: Mean % Cytokine Concentration in DNFB Treated Right Ears versus Vehicle 1-Dosed (S) Mice” value (shortened to “IL-17A: Mean % Cytokine Concentration”) (25 mg/kg, regimen E) was 69% and the “KC: Mean % Cytokine Concentration in DNFB Treated Right Ears versus Vehicle 1-Dosed (S) Mice” value (“KC: Mean % Cytokine Concentration” for short) (25 mg/kg, regimen E) was 39%. The “MCP-1: Mean % Cytokine Concentration in DNFB Treated Right Ears versus Vehicle 1-Dosed (S) Mice” value (“MCP-1: Mean % Cytokine Concentration” below) (25 mg/kg, regimen E) was 44%, the “MIP-1α: Mean % Cytokine Concentration in DNFB Treated Right Ears versus Vehicle 1-Dosed (S) Mice” value (from here on “MIP-1α: Mean % Cytokine Concentration”) (25 mg/kg, regimen E) was 62% and the “MIP-1β: Mean % Cytokine Concentration in DNFB Treated Right Ears versus Vehicle 1-Dosed (S) Mice” value (“MIP-1β: Mean % Cytokine Concentration” below) (25 mg/kg, regimen E) was 60%. For the same molecule, the “RANTES: Mean % Cytokine Concentration in DNFB Treated Right Ears versus Vehicle 1-Dosed (S) Mice” value (shortened to “RANTES: Mean % Cytokine Concentration”) (25 mg/kg, regimen E) was 66%, the “TNF-α: Mean % Cytokine Concentration in DNFB Treated Right Ears versus Vehicle 1-Dosed (S) Mice” value (“TNF-α: Mean % Cytokine Concentration” for short) (25 mg/kg, regimen E) was 53% and the “G-CSF: Mean % Cytokine Concentration” value (60 mg/kg, regimen E) was 50%. For the same molecule, the “GM-CSF: Mean % Cytokine Concentration” value (60 mg/kg, regimen E) was 48%, the “IFN-γ: Mean % Cytokine Concentration” value (60 mg/kg, regimen E) was 58% and the “IL-1α: Mean % Cytokine Concentration” value (60 mg/kg, regimen E) was 188%. For the same molecule, the “IL-1β: Mean % Cytokine Concentration” value (60 mg/kg, regimen E) was 62%, the “IL-3: Mean % Cytokine Concentration” value (60 mg/kg, regimen E) was 77% and the “IL-5: Mean % Cytokine Concentration” value (60 mg/kg, regimen E) was 57%. For the same molecule, the “IL-6: Mean % Cytokine Concentration” value (60 mg/kg, regimen E) was 61%, the “IL-12 (p40): Mean % Cytokine Concentration in DNFB Treated Right Ears versus Vehicle 1-Dosed (S) Mice” value (60 mg/kg, regimen E) was 88% and the “IL-13: Mean % Cytokine Concentration” value (60 mg/kg, regimen E) was 85%. For the same molecule, the “IL-17A: Mean % Cytokine Concentration” value (60 mg/kg, regimen E) was 68%, the “KC: Mean % Cytokine Concentration” value (60 mg/kg, regimen E) was 29% and the “MCP-1: Mean % Cytokine Concentration” value (60 mg/kg, regimen E) was 47%. The “MIP-1α: Mean % Cytokine Concentration” value (60 mg/kg, regimen E) was 62%, the “MIP-1β: Mean % Cytokine Concentration” value (60 mg/kg, regimen E) was 44% and the “RANTES: Mean % Cytokine Concentration” value (60 mg/kg, regimen E) was 53%. The “TNF-α: Mean % Cytokine Concentration” value (60 mg/kg, regimen E) was 81%, the “G-CSF: Mean % Cytokine Concentration” value (60 mg/kg, regimen S) was 36% and the “GM-CSF: Mean % Cytokine Concentration” value (60 mg/kg, regimen S) was 52%. For the same molecule, the “IFN-γ: Mean % Cytokine Concentration” value (60 mg/kg, regimen S) was 46%, the “IL-1α: Mean % Cytokine Concentration” value (60 mg/kg, regimen S) was 136% and the “IL-1β: Mean % Cytokine Concentration” value (60 mg/kg, regimen S) was 52%. The “IL-3: Mean % Cytokine Concentration” value (60 mg/kg, regimen S) was 61%, the “IL-5: Mean % Cytokine Concentration” value (60 mg/kg, regimen S) was 37% and the “IL-6: Mean % Cytokine Concentration” value (60 mg/kg, regimen S) was 32%. For the same molecule, the “IL-12 (p40): Mean % Cytokine Concentration in DNFB Treated Right Ears versus Vehicle 1-Dosed (S) Mice” value (60 mg/kg, regimen S) was 73%, the “IL-13: Mean % Cytokine Concentration” value (60 mg/kg, regimen S) was 75% and the “IL-17A: Mean % Cytokine Concentration” value (60 mg/kg, regimen S) was 38%. For the same molecule, the “KC: Mean % Cytokine Concentration” value (60 mg/kg, regimen S) was 35%, the “MCP-1: Mean % Cytokine Concentration” value (60 mg/kg, regimen S) was 43% and the “MIP-1α: Mean % Cytokine Concentration” value (60 mg/kg, regimen S) was 57%. The “MIP-1β: Mean % Cytokine Concentration” value (60 mg/kg, regimen S) was 52%, the “RANTES: Mean % Cytokine Concentration” value (60 mg/kg, regimen S) was 51% and the “TNF-α: Mean % Cytokine Concentration” value (60 mg/kg, regimen S) was 65%.
